Experimental data as given in patent US9765115B2, “Inhibitors of metastasis, methods of generating such inhibitors and their therapeutic applications” (Board of Supervisors of Louisiana State University acting …, priority 2011, dated 2017).

Tests used:
PC-3-CTR-wt cells = assay: Matrigel in vitro invasion assay; format: cell-based; conditions: 50 nM CT, 48 h
Experimental: Invasion experiments were conducted in Matrigel™ invasion chambers as previously described (Sabbisetti et al., 2005).
CT increases invasiveness, and even induces an invasive phenotype in non-invasive prostate cancer cells. The role of PDZ-binding motif in CT-stimulated invasion was examined. FIG. 2C depicts CTR-C PDZ-binding motif mutation and effects on cell invasion. PC-3V, PC-3 CTRwt and PC-3 CTRΔESS cells were added to upper insert of invasion chambers with or without 50 nM CT, and cells that passed through the Matrigel™ barrier were counted after 48 h. The results are expressed as mean number of invaded cells per 400× field ±SEM (n=6; *p<0.05 (PC-3V v PC-3CTR-wt); $ p<0.05 (PC-3CTR-wt v PC-3CTRΔESS); $$-p<0.05 (PC-3CTRwt+CT v PC-3CTRΔESS+CT) (one-way ANOVA and Newman-Keul's test)). Expression of CTRwt in PC-3 cells increased invasion by 2.5-fold (FIG. 2C).
As shown above, CTR binds to ZO-1 through PDZ interaction (i.e. PDZ ligand on C-tail of CTR binds to the PDZ domain of ZO-1). To attenuate this binding, ZO-1 was saturated with a small C-terminal peptide of CTR sequence containing the PDZ-binding motif. Since ZO-1 is an intracellular membrane protein, the interfering peptide was delivered inside the plasma membrane. It has been shown that trans-activating transcriptional activator (TAT) protein (86-mer polypeptide) from HIV-1 enters mammalian cells when added to the surrounding media (Frankel et al., 1988; Green et al., 1989). Certain small regions of such proteins (10-16-mers) called protein transduction domains (PTDs), also efficiently traverse biological membranes (Elliott et al., 1997). Therefore, a fusion peptide Pep 1 was synthesized of TAT-peptide sequences of HIV virus and CTR-C(N-[…]-C (SEQ ID NO:2), CTR-C sequence underlined). The first experiment was to see if Pep I binds to ZO-1 in reversible fashion. For this, amino acid Y in Pep I was labeled with ^125I, and the binding with ZO-1 analyzed in the presence/absence of unlabeled Pep I (1000×; 20 μM). PC-3CTR-ZO-1-MYC cells were first incubated with unlabeled Pep I or control peptide (20 μM) for 5 min. The cells were then incubated with ^125I-pep I or C for 25 min. The cells were then washed in IP buffer, treated with DSP, and lysed. ZO-1 IPs were obtained, fractionated on SDS-PAGE, and autoradiographed. […] Next, whether Pep I competes with CTR for ZO-1 binding was tested. For this, PC-3-CTR-wt cells were treated with CT (50 nM) and or Pep I (50 μM) for 15 min. The CTR IPs were then immunoblotted and probed for ZO-1 immunoreactivity. […] Next, the biological impact of this phenomenon was examined by testing the effect of Pep I on CTR-stimulated invasion.
The binding of ZO-1 and CTR can be attenuated by saturating ZO-1 with a small C-terminal peptide of CTR sequence containing the PDZ ligand. Since ZO-1 is an intracellular membrane protein, the interfering peptide must penetrate plasma membrane to interact with ZO-1. As discussed above, fusion peptides of small TAT peptides (12-mer) and six (Pep I) or eight amino acids (Pep II) of C-terminal of CTR were synthesized. Control peptides were TAT peptides (12-mer) containing random amino acid sequence of equivalent size (6-mer). […] Thus, these two peptides (sequences given below) could be used therapeutically to attenuate or inhibit metastasis in cancerous cells.

[1] = system: TCF/LEF promoter activity in PC-3 cells; assay: TCF/LEF luciferase reporter assay (pGL3-OT/pGL3-OF); format: cell-based; conditions: 50 nM CT
Experimental: FIG. 28 depicts effect of CT on TCF/LEF promoter activity in PC-3 cells with various compounds added with CT. Cells were seeded into 6-well plates and transfected with the pGL3-OT luciferase/pRL-tK plasmids or pGL3-OF-luciferase/pRL-TK plasmids. The cells were then incubated in complete medium for 48 h, after which they were serum-starved for 16 h. The cells were then treated with CT and/or PMH compounds, and the cell lysates analyzed for luciferase activity. The results are expressed as relative light units (RLU) after normalization with Renilla luciferase activity. The experiment was repeated three separate times, and results expressed as means±S.E.M.
Certain hydantoin-like molecules isolated from sea sponge have been identified that could inhibit prostate cell metastasis (Shah et al., 2009; Mudit et al., 2011). Disruption of junctional complex stabilizes intracellular β-catenin, leading to its translocation in the nucleus, where it can bind to its partner LEF-1 (lymphocyte enhancer binding factor-1) to transactivate target genes. The transcription of TCF/LEF genes can be quantitated by using luciferase-based reporter plasmids, pGL3-OT and pGL3-OF, the improved version of the Topflash and Fopflash vectors (Shah et al., 2009). This assay can be used to comparatively evaluate junction disrupting activity of multiple compounds in a single assay. […] The two compounds, MRM-6 and MRM-4, derivatives of PMH whose structures are shown below, were obtained from Dr. K. A. El Sayed.

calcitonin [CT]
additional increase in invasion (PC-3-CTR-wt cells): 2.5 fold | increase in luciferase activity (RLU) [1]: over 50 fold
